Laboratory results taken from patent publication US9458133B2, “Isoquinolines as potassium ion channel inhibitors” (BRISTOL-MYERS SQUIBB COMPANY, priority 2013, dated 2016).

target: T1, human Kv 1.5 (Homo sapiens, UniProt P22460); experiment: Block of IKur current in patch clamped L-929 cells stably expressing human Kv1.5; type: cell-based; settings: L929, 0.3 μM; patch clamped mammalian L-929 cells expressing human Kv1.5 (IKur); read-out: KV1_5% Inh L929 @0.3 μM
T1 construct: expressed in transfected cells; host or cells: mouse L-929 fibroblasts stably expressing human Kv1.5
Description: Synders, D. J. et al., “A rapidly activating and slowly inactivating potassium channel cloned from human heart: functional analysis after stable mammalian cell culture expression”, J. Gen. Physiol., 101:513-543 (1993). […]

T1 sequence (P22460 whole entry): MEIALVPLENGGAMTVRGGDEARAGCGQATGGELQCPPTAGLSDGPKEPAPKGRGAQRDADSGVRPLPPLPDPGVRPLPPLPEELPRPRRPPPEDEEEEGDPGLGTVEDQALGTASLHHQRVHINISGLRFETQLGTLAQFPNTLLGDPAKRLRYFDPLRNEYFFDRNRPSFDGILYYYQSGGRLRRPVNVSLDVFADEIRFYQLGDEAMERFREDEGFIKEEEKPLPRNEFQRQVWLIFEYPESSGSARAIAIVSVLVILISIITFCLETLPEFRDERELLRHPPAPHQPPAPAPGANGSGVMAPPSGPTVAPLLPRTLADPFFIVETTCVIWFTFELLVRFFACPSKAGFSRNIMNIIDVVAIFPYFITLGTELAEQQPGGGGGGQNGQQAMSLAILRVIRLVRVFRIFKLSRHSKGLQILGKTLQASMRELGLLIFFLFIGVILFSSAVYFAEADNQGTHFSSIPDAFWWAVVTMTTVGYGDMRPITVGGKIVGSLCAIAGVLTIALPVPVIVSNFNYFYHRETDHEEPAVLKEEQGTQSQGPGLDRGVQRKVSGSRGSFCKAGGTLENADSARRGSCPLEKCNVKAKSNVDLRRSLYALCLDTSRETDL

First: NC(=O)Nc1cccc(-c2cc3cccc(-c4ccccc4)c3c(NCc3ccccn3)n2)c1 [Example 38, 1-(3-(8-phenyl-1-(pyridin-2-ylmethylamino)isoquinolin-3-yl)phenyl)urea]
Second: NS(=O)(=O)c1cccc(-c2cc3cccc(-c4ccccc4)c3c(NCc3ccccn3)n2)c1 [Example 36, 3-(8-phenyl-1-(pyridin-2-ylmethylamino)isoquinolin-3-yl)benzenesulfonamide]
The inhibition at 0.3 µM of the first is lower: 90.8% for the first, 94.6% for the second.

Compared with `N#Cc1nc(NCc2ccccc2)c2c(-c3ccccc3)cccc2c1-c1cncc(S(N)(=O)=O)c1` [Example 16, 5-(1-(Benzylamino)-3-cyano-8-phenylisoquinolin-4-yl)pyridine-3-sulfonamide], `CC(C)C(Nc1nc(Cl)c(-c2cncc(S(N)(=O)=O)c2)c2cccc(-c3ccccc3)c12)c1ccccn1` (centres unmarked) [Example 80, 5-(3-chloro-1-(2-methyl-1-(pyridin-2-yl)propylamino)-8-phenylisoquinolin-4-yl)pyridine-3-sulfonamide] is higher in inhibition at 0.3 µM: 88.6% for the first, 92.5% for the second.

For `CC(=O)Nc1ccc(-c2cc3cccc(-c4ccccc4)c3c(NCc3ccccn3)n2)cc1` [Example 31, N-(4-(8-phenyl-1-(pyridin-2-ylmethylamino)isoquinolin-3-yl)phenyl)acetamide], the inhibition at 0.3 µM was 15.2%.
